For the test, the system named is Escherichia coli ATCC 25922. Kind of test: 50% growth inhibitory concentration (IC50) determination, Iso-Sensitest broth dilution. The test is classed as cell-based. The note with it: Escherichia coli, ATCC25922, 16 h, strain Escherichia coli ATCC 25922; 10-point broth dilution, optical density at 600 nm over 16 h; read-out: Escherichia coli growth inhibition IC50. In outline:
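10-point twofold Iso-Sensitest broth dilution (e.g. 50 to 0.097 μM final) with DMSO stocks, incubated at 35±2° C. Growth followed by OD 600 nm every 20 min over 16 h; IC50 derived from growth inhibition during logarithmic phase.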
(In general: In broth dilution the organism is exposed to a series of concentrations in liquid medium.)

The structures appear in SMILES notation. Bounds are passed on as bounds.

One may read the IC50 as the concentration that inhibits the measured activity by half. Take `N#Cc1cc(OCc2cn[nH]c2)cc2c1CC(CNCCC1CN(c3cnc4c(n3)NC(=O)CO4)C(=O)O1)C2` (stereo not shown) [Example 405, 2-[[2-[2-oxo-3-(3-oxo-4H-pyrazino[2,3-b][1,4]oxazin-6-yl)-1,3-oxazolidin-5-yl]ethylamino]methyl]-6-(1H-pyrazol-4-ylmethoxy)-2,3-dihydro-1H-indene-4-carbonitrile; formic acid]: the IC50 is less than 97.7 nM.

`Cc1c(OCC(=O)NC(C)C)ncc2c1CC(CNCCC1CN(c3ccc4c(n3)NC(=O)CO4)C(=O)O1)C2` (stereo not shown) [Example 224, N-isopropyl-2-((4-methyl-6-(((2-(2-oxo-3-(3-oxo-3,4-dihydro-2H-pyrido[3,2-b][1,4]oxazin-6-yl)oxazolidin-5-yl)ethyl)amino)methyl)-6,7-dihydro-5H-cyclopenta[c]pyridin-3-yl)oxy)acetamide]: the IC50 was 791 nM.

As to `Cc1nc(OCCNC(C)C)c(C)c2c1CC(CNCCC1CN(c3ccc4c(n3)NC(=O)CO4)C(=O)O1)C2` (stereo not shown) [Example 201, 6-[5-[2-[[1,4-dimethyl-3-[2-(propan-2-ylamino)ethoxy]-6,7-dihydro-5H-cyclopenta[c]pyridin-6-yl]methylamino]ethyl]-2-oxo-1,3-oxazolidin-3-yl]-4H-pyrido[3,2-b][1,4]oxazin-3-one], the IC50 worked out at 157 nM.

With `N#Cc1cc(OCC2(N)CC2)cc2c1CC(CCNCC1CN(c3ccc4c(n3)NC(=O)CO4)C(=O)O1)C2` (stereo not shown) [Example 196, 6-((1-aminocyclopropyl)methoxy)-2-(2-(((2-oxo-3-(3-oxo-3,4-dihydro-2H-pyrido[3,2-b][1,4]oxazin-6-yl)oxazolidin-5-yl)methyl)amino)ethyl)-2,3-dihydro-1H-indene-4-carbonitrile], the IC50 is less than 97.7 nM.

For the origin of these results see patent US20230167127A1, “COMPOUNDS AND THEIR USE IN THE TREATMENT OF BACTERIAL INFECTION” (Hoffmann-La Roche Inc., priority 2020, published 2023).
